Key:
GRK3 = assay: Western blot of GRK3 in intact and lesioned striatum; assay type: in vivo, mice; details: normalized to actin; formulation and ranitidine groups compared with the DOPA-treated group, Bonferroni post-hoc
Method: (§1) After behavioral testing, mice again received their assigned injection and then, 45 minutes later, were decapitated under anesthesia. Tissue samples were processed as follows. Briefly, the brain was dissected, rapidly frozen on dry ice, and stored at −80° C. Striatal tissue was collected from 100 μm coronal slices cut at the level of striatum using a cryostat (Leica CM1950, Leica Biosystems Inc, Buffalo Groove, Ill.). Striatal samples from the intact and the lesioned hemisphere were separately collected in 150p1 of lysis solution (Totally RNA, Ambion, Austin, Tex.). Care was taken to make sure that the tissue samples were collected from similar regions in all the brain samples analyzed, since there are differences in the expression of GRKs from rostral to caudal CPu. […]
(§2) Western blots were quantified using band densitometry in Image J software (NIH version). […] Results are represented as group mean±SEM and analyzed using one-way or repeated-measures ANOVA (RM-ANOVA), with post hoc Bonferroni tests. The mouse cylinder test was analyzed with RM-ANOVA, with group (DOPA and DOPA-ranitidine formulations) as a between-group factor and saline vs. DOPA treatment as a within-group factor. AIMs scores were analyzed using the Kruskal Wallis test for pre-testing (DOPA injected animals) and the Mann-Whitney U test for the post-testing sessions (DOPA vs DOPA-ranitidine formulations). […]

SAPK/JNK = assay: Western blot of phospho SAPK/JNK and total SAPK/JNK in striatum; assay type: in vivo, mice
Method: as §1, §2

Row | SMILES | GRK3 in the lesioned hemisphere as % expression of the intact side (GRK3) | phospho JNK level in both the intact and the lesioned hemispheres (SAPK/JNK; no differences between hemispheres) | phosphorylation of p54 versus the ranitidine/DOPA formulation groups (SAPK/JNK; ranitidine alone group)
1 | N[C@@H](Cc1ccc(O)c(O)c1)C(=O)O [L-DOPA, L-3,4-dihydroxyphenylalanine] | significantly reduced in the lesioned hemisphere | elevated | 
2 | CN/C(=C\[N+](=O)[O-])NCCSCc1ccc(CN(C)C)o1 [Ranitidine, N-(2-[(5-[(dimethylamino)methyl]furan-2-yl)methylthio]ethyl)-N′-methyl-2-nitroethene-1,1-diamine] | significantly attenuated |  | reduced in both the intact and lesioned hemispheres
